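Compound exposure: 48 hours, 5 concentrations, 96-well plates. GI50 = concentration required for 50% inhibition of growth.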 The source made the active and inactive calls. Cut-off read from the data, not from the text of the source: active = GI50 up to about 1.1 µM and inactive = higher.
Tests used:
Assay in all cases: NCI anticancer screen, dose series, 48 h
SF-268 = tested on: SF-268
A549 = tested on: A549
M14 = tested on: M14
HOP-62 = tested on: HOP-62
COLO 205 = tested on: COLO 205
EKVX = tested on: EKVX
SNB-75 = tested on: SNB-75
Hs-578T = tested on: Hs-578T
CAKI-1 = tested on: CAKI-1
T47D = tested on: T47D
NCI-H522 = tested on: NCI-H522
UACC-257 = tested on: UACC-257
HT-29 = tested on: HT-29
SK-MEL-5 = tested on: SK-MEL-5
HCC 2998 = tested on: HCC 2998
SF-295 = tested on: SF-295
KM12 = tested on: KM12
HCT-15 = tested on: HCT-15
ACHN = tested on: ACHN
HCT-116 = tested on: HCT-116
HL-60 = tested on: HL-60
SNB-19 = tested on: SNB-19
TK-10 = tested on: TK-10
RXF 393 = tested on: RXF 393
SW-620 = tested on: SW-620
UACC-62 = tested on: UACC-62
OVCAR-4 = tested on: OVCAR-4
RPMI-8226 = tested on: RPMI-8226
MDA-MB-231 = tested on: MDA-MB-231
OVCAR-8 = tested on: OVCAR-8
NCI-H460 = tested on: NCI-H460
MOLT-4 = tested on: MOLT-4
BT-549 = tested on: BT-549
MDA-MB-435 = tested on: MDA-MB-435
NCI/ADR-RES = tested on: NCI/ADR-RES
U-251 = tested on: U-251
LOX IMVI = tested on: LOX IMVI
OVCAR-3 = tested on: OVCAR-3
SN12C = tested on: SN12C
SK-MEL-2 = tested on: SK-MEL-2
SR = tested on: SR
OVCAR-5 = tested on: OVCAR-5
CCRF-CEM = tested on: CCRF-CEM
HOP-92 = tested on: HOP-92
MDA-N = tested on: MDA-N
Malme-3M = tested on: Malme-3M
UO-31 = tested on: UO-31
SK-OV-3 = tested on: SK-OV-3
MCF7 = tested on: MCF7
786-0 = tested on: 786-0
K562 = tested on: K562
NCI-H23 = tested on: NCI-H23
DU-145 = tested on: DU-145
IGROV-1 = tested on: IGROV-1
NCI-H226 = tested on: NCI-H226
SK-MEL-28 = tested on: SK-MEL-28
A498 = tested on: A498
PC-3 = tested on: PC-3
SF-539 = tested on: SF-539

COC(=O)[C@H](C)NC(=O)C1(CNC(=O)[C@H](C)NC(=O)OC(C)(C)C)Cc2ccccc2-c2ccccc2C1
GI50 (SF-268): 19600 nM (inactive) | GI50 (A549): 19400 nM (inactive) | GI50 (M14): > 45900 nM (inactive) | GI50 (HOP-62): 27000 nM (inactive) | GI50 (COLO 205): 22300 nM (inactive) | GI50 (EKVX): 19300 nM (inactive) | GI50 (SNB-75): 23400 nM (inactive) | GI50 (Hs-578T): > 37200 nM (inactive) | GI50 (CAKI-1): 12200 nM (inactive) | GI50 (T47D): 21800 nM (inactive) | GI50 (NCI-H522): 7520 nM (inactive) | GI50 (UACC-257): > 48200 nM (inactive) | GI50 (HT-29): 17400 nM (inactive) | GI50 (SK-MEL-5): 23300 nM (inactive) | GI50 (HCC 2998): 24900 nM (inactive) | GI50 (SF-295): 21400 nM (inactive) | GI50 (KM12): 16100 nM (inactive) | GI50 (HCT-15): 15700 nM | GI50 (ACHN): 22800 nM (inactive) | GI50 (HCT-116): 33800 nM (inactive) | GI50 (HL-60): 19500 nM (inactive) | GI50 (SNB-19): > 56900 nM (inactive) | GI50 (TK-10): 27000 nM (inactive) | GI50 (RXF 393): 25500 nM (inactive) | GI50 (SW-620): 26200 nM (inactive) | GI50 (UACC-62): 16700 nM (inactive) | GI50 (OVCAR-4): 21000 nM (inactive) | GI50 (RPMI-8226): 7590 nM (inactive) | GI50 (MDA-MB-231): 17900 nM (inactive) | GI50 (OVCAR-8): 6780 nM (inactive) | GI50 (NCI-H460): 19700 nM (inactive) | GI50 (MOLT-4): 16700 nM (inactive) | GI50 (BT-549): > 43600 nM (inactive) | GI50 (MDA-MB-435): 20000 nM (inactive) | GI50 (NCI/ADR-RES): 17500 nM (inactive) | GI50 (U-251): 17900 nM (inactive) | GI50 (LOX IMVI): 3850 nM (inactive) | GI50 (OVCAR-3): 17500 nM (inactive) | GI50 (SN12C): 17700 nM (inactive) | GI50 (SK-MEL-2): 40000 nM (inactive) | GI50 (SR): 20000 nM (inactive) | GI50 (OVCAR-5): 19900 nM (inactive) | GI50 (CCRF-CEM): 18700 nM (inactive) | GI50 (HOP-92): 5510 nM (inactive) | GI50 (MDA-N): 26100 nM (inactive) | GI50 (Malme-3M): 19100 nM (inactive) | GI50 (UO-31): 4670 nM (inactive) | GI50 (SK-OV-3): 30500 nM (inactive) | GI50 (MCF7): 37500 nM (inactive) | GI50 (786-0): 19600 nM (inactive) | GI50 (K562): 24700 nM (inactive) | GI50 (NCI-H23): 18000 nM (inactive) | GI50 (DU-145): 14900 nM (inactive) | GI50 (IGROV-1): 16300 nM (inactive) | GI50 (NCI-H226): 24500 nM (inactive) | GI50 (SK-MEL-28): > 47300 nM (inactive) | GI50 (A498): 35700 nM (inactive) | GI50 (PC-3): 23800 nM (inactive) | GI50 (SF-539): 27000 nM (inactive)

COc1ccc2nc3cccc([N+](=O)[O-])c3c(NCCO)c2c1
GI50 (SF-268): 15.7 nM (active) | GI50 (A549): 19.8 nM (active) | GI50 (M14): 7.62 nM (active) | GI50 (HOP-62): 20.8 nM (active) | GI50 (COLO 205): 5.27 nM (active) | GI50 (EKVX): 23.8 nM (active) | GI50 (SNB-75): 94.2 nM (active) | GI50 (Hs-578T): 16.9 nM (active) | GI50 (CAKI-1): 18.3 nM (active) | GI50 (T47D): 141 nM (active) | GI50 (NCI-H522): 17 nM (active) | GI50 (UACC-257): 27.7 nM (active) | GI50 (HT-29): 6.15 nM (active) | GI50 (SK-MEL-5): 18.8 nM (active) | GI50 (HCC 2998): 14.6 nM (active) | GI50 (SF-295): 68.4 nM (active) | GI50 (KM12): 25.5 nM (active) | GI50 (HCT-15): 5.94 nM | GI50 (ACHN): 10.5 nM (active) | GI50 (HCT-116): 1.78 nM (active) | GI50 (HL-60): 14.8 nM (active) | GI50 (SNB-19): 48.6 nM (active) | GI50 (TK-10): 33.6 nM (active) | GI50 (RXF 393): 12.6 nM (active) | GI50 (SW-620): 1.64 nM (active) | GI50 (UACC-62): 18.2 nM (active) | GI50 (OVCAR-4): 38.6 nM (active) | GI50 (RPMI-8226): 2.35 nM (active) | GI50 (MDA-MB-231): 13.8 nM (active) | GI50 (OVCAR-8): 8.3 nM (active) | GI50 (NCI-H460): 3.78 nM (active) | GI50 (MOLT-4): 25.5 nM (active) | GI50 (BT-549): 5.65 nM (active) | GI50 (MDA-MB-435): 6.56 nM (active) | GI50 (NCI/ADR-RES): 18.2 nM (active) | GI50 (U-251): 21.1 nM (active) | GI50 (LOX IMVI): 1.49 nM (active) | GI50 (OVCAR-3): 14.9 nM (active) | GI50 (SN12C): 19 nM (active) | GI50 (SK-MEL-2): 17.5 nM (active) | GI50 (SR): 1 nM (active) | GI50 (OVCAR-5): 20.3 nM (active) | GI50 (CCRF-CEM): 47.9 nM (active) | GI50 (HOP-92): 19.5 nM (active) | GI50 (MDA-N): 8.95 nM (active) | GI50 (Malme-3M): 16 nM (active) | GI50 (UO-31): 21.8 nM (active) | GI50 (SK-OV-3): 185 nM (active) | GI50 (MCF7): 18 nM (active) | GI50 (786-0): 11.2 nM (active) | GI50 (K562): 1.99 nM (active) | GI50 (NCI-H23): 21.9 nM (active) | GI50 (DU-145): 11 nM (active) | GI50 (IGROV-1): 162 nM (active) | GI50 (NCI-H226): 37.8 nM (active) | GI50 (SK-MEL-28): 27.7 nM (active) | GI50 (A498): 50.7 nM (active) | GI50 (PC-3): 23.2 nM (active) | GI50 (SF-539): 18.2 nM (active)

Source: ChEMBL document CHEMBL1201862, “PubChem BioAssay data set” (2004)
